Counter-ions that a name gives are not always drawn.
Assays:
[1] = hydroperoxides, cited from earlier work; for Average HPO: average of lots tested; for High HPO Lot: highest lot; for Low HPO Lot: lowest lot
[2] = Dissolution studies of Lasofoxifene in organic solvents and surfactants; assay type: physicochemical; settings: for Dissolution of Lasofoxifene in various organic solvents and surfactants, 2 mg/ml: Lasofoxifene 2 mg/ml in the labelled solvent/surfactant; for Dissolution of Lasofoxifene in various organic solvents and surfactants, 2 mg/ml / Dissolution of Lasofoxifene in various organic solvents and surfactants, 3 mg/ml / Dissolution of Lasofoxifene in various organic solvents and surfactants, 6 mg/ml: visual examination; for Dissolution of Lasofoxifene in various organic solvents and surfactants, 3 mg/ml: Lasofoxifene 3 mg/ml in the labelled solvent/surfactant; for Dissolution of Lasofoxifene in various organic solvents and surfactants, 6 mg/ml: Lasofoxifene 6 mg/ml in the labelled solvent/surfactant
Experimental: The solubility of Lasofoxifene was investigated by screening various organic solvents and surfactants in increasing concentrations. The term “formulation” may refer to a pharmaceutical composition comprising […] pharmaceutically acceptable excipients.
First, 1 mg of Lasofoxifene was weighed into Eppendorf vessels and 500 μl of organic solvents and surfactants as listed in Table 20 were added. In cases of insufficient dissolution of the API, samples were treated with ultrasound for 30 min and, if necessary, heated to 50° C. while shaking (300 rpm). Afterwards, samples were examined visually regarding drug dissolution. In case of entire dissolution, the experiment was repeated with increasing drug concentrations until maximum dissolution was achieved. In addition, further organic solvents and surfactants were tested.

[3] = as above; assay type: physicochemical; settings: Lasofoxifene 1 mg/ml in the labelled solvent/surfactant; visual examination
[4] = Peroxide value of excipients at the opening of the container; assay type: physicochemical; settings: measured after opening the container

Row | Molecule | Average HPO [1] [nmol/g] | High HPO Lot [1] [nmol/g] | Low HPO Lot [1] [nmol/g] | Dissolution of Lasofoxifene in various organic solvents and surfactants, 2 mg/ml [2] | Dissolution of Lasofoxifene in various organic solvents and surfactants, 3 mg/ml [2] | Dissolution of Lasofoxifene in various organic solvents and surfactants, 6 mg/ml [2] | Dissolution of Lasofoxifene in various organic solvents and surfactants, 1 mg/ml [3] | Dissolution of Lasofoxifene in more lipophilic excipients ([2]; in the labelled excipient) | Peroxide value [4] [µmol]
1 | OC[C@H]1O[C@@H](O[C@H]2[C@H](O)[C@@H](O)C(O)O[C@@H]2CO)[C@H](O)[C@@H](O)[C@H]1O (some centres unmarked) [Lactose] | <10 | 10 | <10 | – | – | – | – | – | –
2 | OC[C@@H](O)[C@@H](O)[C@H](O)[C@H](O)CO [Mannitol] | <10 | <10 | <10 | – | – | – | – | – | –
3 | CC(O)CO (centres unmarked) [Propylene glycol (PG), Propylene glycol] | – | – | – | dissolved* | partially | not dissolved | dissolved | – | –
4 | OC[C@H]1O[C@@](CO)(O[C@H]2O[C@H](CO)[C@@H](O)[C@H](O)[C@H]2O)[C@@H](O)[C@@H]1O [Sucrose] | <10 | 20 | <10 | – | – | – | – | – | –
5 | CCOCCOCCO [Transcutol (TC), Diethylene glycol monoethyl ether] | – | – | – | dissolved | dissolved | – | dissolved | – | –
6 | CCCCOC(=O)CC(O)(CC(=O)OCCCC)C(=O)OCCCC [Tributyl citrate (TBC), Tributyl citrate] | – | – | – | – | – | – | not dissolved | could not be dissolved | –
7 | Tetraglycol [Tetraglycol (TG)] | – | – | – | dissolved | partially | not dissolved | dissolved | – | 1.55
